Here are results for one compound from patent US9943599B2, “Therapeutic applications of calcium electroporation to effectively induce tumor necrosis” (Herlev Hospital, priority 2011, dated 2018).

The subject of assay [1] is SW780 (human bladder cancer) tumors. Briefly: Fraction of necrosis after calcium electroporation, SW780 tumors. The format is in vivo, NMRI-Foxn1^nu mice. The method, then: LPB, a murine sarcoma cell line, B16, a murine malignant melanoma cell line, MDA-MB231, human a breast cancer cell line, HT29, a human colon cancer cell line, and SW780, a human bladder cancer cell line were used for the in vivo experiment. The cells were tested by rapid MAP27 panel (Taconic, Hudson N.Y.) before use without signs of infection. 2×10^5 cells (B16), 8×10^5 cells (LPB), 2.5×10^6 cells (MDA-MB231), and 5×10^6 cells (HT29 and SW780) in 100 μl PBS were injected subcutaneously in the flank of NMRI-Foxn1^nu mice (Harlan, Indianapolis, Ind.) that were 9-11 weeks old. Mice were randomised at a tumor volume above 85 mm^3 and tumors were treated with injection of isotonic calcium-chloride solution (168 mM CaCI2) and electroporation (8 pulses of 1.0 kv/cm for 100 μs and a frequency of 1 Hz) using a 6 mm plate electrode and a square wave electroporator (CLINIPORATOR®, IGEA, Modena, Italy). Tumor volume was calculated as ab^2n/6, where a is the largest diameter and b is the largest diameter perpendicular to a. The injected volume was half of the tumor volume. […] The fraction of necrosis within the tumor was estimated from HE-sections by stereological point counting using a light microscope, evaluated by a pathologist, blinded with respect to treatment status.
The difference in fraction of necrosis at different time after treatment was assessed using student's t-test.

Assay [2] relates to N32 (rat brain glioma) tumors. Briefly: Calcium electroporation of brain tumor, MRI and H&E. The format is in vivo, Sprague Dawley rats. The method, then:
N32, a rat brain glioma derived tumor cell line, and 7-11 weeks old Sprague Dawley male rats (Taconic, Hudson N.Y.) were used for the in vivo experiments. The cells were tested by rapid MAP27 panel (Taconic, Hudson N.Y.) before use without signs of infection. Inoculation of 3,000 N32 cells in 5 μl at the stereotaxic coordinates; X=2, Y=1, Z=−4 was performed and verification of tumor by MRI prior to treatment was performed two weeks after inoculation. HYPNORM™-DORMICUM™ (fentanyl/fluanisone/midazolam; VetaPharma, Leeds, U K and Roche, Basel, Switzerland) was used for anesthesia complemented with RIMADYL® (Carprofen) (Pfizer ApS, Ballerup, Denmark) for pain relief after surgery. Tumors were treated two weeks after inoculation with 1) injection of 14 μl calcium-chloride solution (168 mM) and electroporation (32 pulses of 100V for 100 μs and a frequency of 1 Hz) using an 8-electrode device developed for treatment of brain tumors, a square wave electroporator (CLINIPORATOR®, IGEA, Modena, Italy), and a switch box (Sonion), or 2) injection of 14 μl calcium-chloride solution (168 mM) and placement of electrodes but no pulses applied. MRI was performed at day 1, 3, 6, and 8 after treatment. […] The extend of necrosis, the presence of macrophages and the influence on neurons and glia cells were evaluated by H&E, PAS, NF, and GFAP staining, respectively.

For the compound `[Ca+2].[Cl-].[Cl-]` [calcium chloride], the “fraction of necrosis in tumors, course” value in assay [1] (168 mM CaCl2, half tumor volume, electroporation, first days after treatment) is on record as “progressive necrosis”. Moreover, the tumor re-growth result in assay [1] (6 days after the treatment) was “re-growth”. For the same compound, the “tumor size (MRI, H&E)” value in assay [2] (14 μl 168 mM calcium alone, no pulses, 6 days after the treatment) is “no effect on tumor size”. Also, the “tumor (MRI, H&E)” value in assay [2] (14 μl 168 mM calcium chloride with electroporation (32 pulses 100V), 8 days after the treatment) was “eliminated”.
